Results published in patent US20210130549A1, “IPN hydrogel for preparation and application” (EASTING BIOTECHNOLOGY COMPANY LIMITED, priority 2019, published 2021).

Experiment: Hydrophilic drug release from drug-containing IPN hydrogel in sustained-release solution (HPLC, 272 nm)
Type: physicochemical
Conditions: from release curve FIG. 4; drug-loaded IPN hydrogel; sampling 30 minutes to 72 hours
Experimental: The drug-containing hydrogel was placed in a sustained-release solution for drug release testing and taking the samples from sustained-release solution within a fixed time.
Taking the samples with fixed time and test releasing concentration. The sampling time is 30 minutes, 60 minutes, 90 minutes, 180 minutes, 8 hours, 24 hours, 48 hours, and 72 hours.
The subsequent drug concentration was analyzed by high performance liquid chromatography (HPLC). The water-based drug used caffeine for drug release, and the absorption wavelength of caffeine was 272 nm for measurement.

## Cn1c(=O)c2c(ncn2C)n(C)c1=O [caffeine]
  release amount of caffeine in water: ≥ 40%
